The results in this text go back to patent publication US20250034167A1, “HETEROCYCLIC COMPOUNDS AND METHODS OF USE” (AMGEN INC., priority 2021, published 2025).

In one test the test system is Phosphorylation of ERK1/2 in AsPC-1 cells. Description: Phospho-ERK1/2 MSD Assay. The format is cell-based. The following applies: Homo sapiens, ASPC1, 2 h, read-out: 2 h p-ERK (AsPC-1 cells), IC50, AsPC-1 cells, 2 h compound treatment. As to the method:
Sixteen hours prior to compound treatment, AsPC-1 cells were seeded in 96-well cell culture plates at a density of 25,000 cells/well and incubated at 37° C., 5% CO2. A compound dose-response titration was diluted in growth media, added to appropriate wells of a cell culture plate, and then incubated at 37° C., 5% CO2 for 2 hours.
As to `CCc1c(F)ccc2cc(O)cc(-c3ncc4c(N5CCC[C@@H](NC(=S)NCCOC)C5)nc(OC[C@@]56CCCN5C[C@H](F)C6)nc4c3F)c12` [Example 74, 1-((R)-1-(7-(8-ethyl-7-fluoro-3-hydroxynaphthalen-1-yl)-8-fluoro-2-(((2R,7aS)-2-fluorotetrahydro-1H-pyrrolizin-7a(5H)-yl)methoxy)pyrido[4,3-d]pyrimidin-4-yl)piperidin-3-yl)-3-(2-methoxyethyl)thiourea], the half-inhibitory concentration (IC50) came out at 2710 nM. Consider `CCc1c(F)ccc2cc(O)cc(-c3ncc4c(N5CC[C@H](F)[C@H](O)C5)nc(OC[C@@]56CCCN5C[C@H](F)C6)nc4c3F)c12` [Example 47, (3R,4S)-1-(7-(8-Ethyl-7-fluoro-3-hydroxynaphthalen-1-yl)-8-fluoro-2-(((2R,7aS)-2-fluorotetrahydro-1H-pyrrolizin-7a(5H)-yl)methoxy)pyrido[4,3-d]pyrimidin-4-yl)-4-fluoropiperidin-3-ol], for which the IC50 amounted to 222 nM. The same measure, in the same setting: with `CCc1c(F)ccc2cc(O)cc(-c3ncc4c(N5CCC[C@@](C)(O)C5)nc(OCC5(CN(C)C)CC5)nc4c3F)c12` [Example 180, (R)-1-(2-((1-((Dimethylamino)methyl)cyclopropyl)methoxy)-7-(8-ethyl-7-fluoro-3-hydroxynaphthalen-1-yl)-8-fluoropyrido[4,3-d]pyrimidin-4-yl)-3-methylpiperidin-3-ol] the figure was 12 nM; with `CCc1c(F)ccc2cc(O)cc(-c3ncc4c(N5CCC=CC(=O)C5)nc(OC[C@@]56CCCN5C[C@H](F)C6)nc4c3F)c12` [Example 134, 1-(7-(8-Ethyl-7-fluoro-3-hydroxynaphthalen-1-yl)-8-fluoro-2-(((2R,7aS)-2-fluorotetrahydro-1H-pyrrolizin-7a(5H)-yl)methoxy)pyrido[4,3-d]pyrimidin-4-yl)-1,2,6,7-tetrahydro-3H-azepin-3-one], 259 nM; with `CCc1c(F)ccc2cc(O)cc(-c3ncc4c(N5CCCC(O)(C6CC6)C5)nc(OC[C@@]56CCCN5C[C@H](F)C6)nc4c3F)c12` (stereo partly drawn) [Example 157, 3-Cyclopropyl-1-(7-(8-ethyl-7-fluoro-3-hydroxy-naphthalen-1-yl)-8-fluoro-2-(((2R,7aS)-2-fluorotetrahydro-1H-pyrrolizin-7a(5H)-yl)methoxy)pyrido[4,3-d]pyrimidin-4-yl)piperidin-3-ol], 1240 nM. Same read-out and setting: to `CCc1c(F)ccc2cc(O)cc(-c3ncc4c(N5C[C@H](O)CC[C@H]5C)nc(OC[C@@]56CCCN5C[C@H](F)C6)nc4c3F)c12` [Example 36, (3R,6R)-1-(7-(8-Ethyl-7-fluoro-3-hydroxynaphthalen-1-yl)-8-fluoro-2-(((2R,7aS)-2-fluorotetrahydro-1H-pyrrolizin-7a(5H)-yl)methoxy)pyrido[4,3-d]pyrimidin-4-yl)-6-methyl-piperidin-3-ol] belongs 344 nM. For the molecule `CCc1c(F)ccc2cc(O)cc(-c3ncc4c(N5CCC[C@@](C)(O)C5)nc(OC[C@@]56CCCN5C[C@H](F)C6)nc4c3C)c12` [Example 169, (R)-1-(7-(8-Ethyl-7-fluoro-3-hydroxynaphthalen-1-yl)-2-(((2R,7aS)-2-fluorotetrahydro-1H-pyrrolizin-7a(5H)-yl)methoxy)-8-methylpyrido[4,3-d]pyrimidin-4-yl)-3-methylpiperidin-3-ol], the IC50 was 40 nM. On to `CCc1c(F)ccc2cc(O)cc(-c3ncc4c(N5CC(n6ccnc6)C5)nc(OC[C@@]56CCCN5C[C@H](F)C6)nc4c3F)c12` [Example 91, 4-(4-(3-(1H-Imidazol-1-yl)azetidin-1-yl)-8-fluoro-2-(((2R,7aS)-2-fluorotetrahydro-1H-pyrrolizin-7a(5H)-yl)methoxy)pyrido[4,3-d]pyrimidin-7-yl)-5-ethyl-6-fluoronaphthalen-2-ol], for which the IC50 turned out to be 5130 nM.

For `CCc1c(F)ccc2cc(O)cc(-c3ncc4c(N5CCC[C@@H](NC(=O)OC)C5)nc(OC[C@@]56CCCN5C[C@H](F)C6)nc4c3F)c12` [Example 78, Methyl ((R)-1-(7-(8-ethyl-7-fluoro-3-hydroxynaphthalen-1-yl)-8-fluoro-2-(((2R,7aS)-2-fluorotetrahydro-1H-pyrrolizin-7a(5H)-yl)methoxy)pyrido[4,3-d]pyrimidin-4-yl)piperidin-3-yl)carbamate], the IC50 came out at 244 nM. In the case of `CCc1c(F)ccc2cc(O)cc(-c3ncc4c(N5CCCCC(=O)C5)nc(OC[C@@]56CCCN5C[C@H](F)C6)nc4c3F)c12` [Example 127, 1-(7-(8-Ethyl-7-fluoro-3-hydroxynaphthalen-1-yl)-8-fluoro-2-(((2R,7aS)-2-fluorotetrahydro-1H-pyrrolizin-7a(5H)-yl)methoxy)pyrido[4,3-d]pyrimidin-4-yl)azepan-3-one], the IC50 was 8 nM. Regarding `C[C@@]1(O)CCCN(c2nc(OC[C@@]34CCCN3C[C@H](F)C4)nc3c(F)c(-c4cc(O)cc5ccc(F)c(F)c45)ncc23)C1` [Example 59, (R)-1-(7-(7,8-Difluoro-3-hydroxynaphthalen-1-yl)-8-fluoro-2-(((2R,7aS)-2-fluorotetrahydro-1H-pyrrolizin-7a(5H)-yl)methoxy)pyrido[4,3-d]pyrimidin-4-yl)-3-methylpiperidin-3-ol], the IC50 stood at 33 nM. As for `CCc1c(F)ccc2cc(O)cc(-c3ncc4c(N5CCC[C@@](C)(N)C5)nc(OCC56CCCN5CC(F)C6)nc4c3F)c12` (stereo in doubt) [Example 46, 4-(4-((R)-3-Amino-3-methylpiperidin-1-yl)-8-fluoro-2-(((2R,7aS)-2-fluorotetrahydro-1H-pyrrolizin-7a(5H)-yl)methoxy)pyrido[4,3-d]pyrimidin-7-yl)-5-ethyl-6-fluoronaphthalen-2-ol], the IC50 came to 213 nM. Still for that read-out and setting: to `CCc1c(F)ccc2cc(O)cc(-c3ncc4c(N5CCC(O)C5)nc(OC[C@@]56CCCN5C[C@H](F)C6)nc4c3F)c12` (stereo partly drawn) [Example 16, 1-(7-(8-Ethyl-7-fluoro-3-hydroxynaphthalen-1-yl)-8-fluoro-2-(((2R,7aS)-2-fluorotetrahydro-1H-pyrrolizin-7a(5H)-yl)methoxy)pyrido[4,3-d]pyrimidin-4-yl)pyrrolidin-3-ol] belongs 2860 nM. For `CCc1c(F)ccc2cc(O)cc(-c3ncc4c(N5CCC[C@@](C)(NC(=O)OC)C5)nc(OC[C@@]56CCCN5C[C@H](F)C6)nc4c3F)c12` [Example 77, Methyl ((R)-1-(7-(8-ethyl-7-fluoro-3-hydroxynaphthalen-1-yl)-8-fluoro-2-(((2R,7aS)-2-fluorotetrahydro-1H-pyrrolizin-7a(5H)-yl)methoxy)pyrido[4,3-d]pyrimidin-4-yl)-3-methylpiperidin-3-yl)carbamate], the IC50 worked out at 1530 nM. Regarding `CCc1c(F)ccc2cc(O)cc(-c3ncc4c(N5CCCC(O)(C(F)(F)F)C5)nc(OC[C@@]56CCCN5C[C@H](F)C6)nc4c3F)c12` (stereo partly drawn) [Example 156, 1-(7-(8-Ethyl-7-fluoro-3-hydroxy-naphthalen-1-yl)-8-fluoro-2-(((2R,7aS)-2-fluorotetrahydro-1H-pyrrolizin-7a(5H)-yl)methoxy)pyrido[4,3-d]pyrimidin-4-yl)-3-(trifluoromethyl) piperidin-3-ol], the IC50 was 172 nM.

As for `CCc1c(F)ccc2cc(O)cc(-c3ncc4c(N5CCC[C@@](C)(O)C5)nc(OC[C@@]56CCCN5C[C@H](F)C6)nc4c3Cl)c12` [Example 168, (R)-1-(8-Chloro-7-(8-ethyl-7-fluoro-3-hydroxynaphthalen-1-yl)-2-(((2R,7aS)-2-fluorotetrahydro-1H-pyrrolizin-7a(5H)-yl)methoxy)pyrido[4,3-d]pyrimidin-4-yl)-3-methylpiperidin-3-ol], the IC50 was 34 nM.

The same test, now with this note: Homo sapiens, ASPC1, read-out: 2 h p-ERK (AsPC-1 cells), IC50; AsPC-1 cells, 2 h compound treatment.
As for `CCc1c(F)ccc2cc(O)cc(-c3ncc4c(N5CCC[C@@](C)(O)C5)nc(OC[C@]56CCCN5C[C@H](F)C6)nc4c3F)c12` [Example 53, (R)-1-(7-(8-ethyl-7-fluoro-3-hydroxynaphthalen-1-yl)-8-fluoro-2-(((2R,7aR)-2-fluorotetrahydro-1H-pyrrolizin-7a(5H)-yl)methoxy)pyrido[4,3-d]pyrimidin-4-yl)-3-methylpiperidin-3-ol], the IC50 amounted to 13 nM.

Take `[2H]C([2H])([2H])[C@]1(O)CCCN(c2nc(OC[C@@]34CCCN3C[C@H](F)C4)nc3c(F)c(-c4cc(O)cc5ccc(F)c(CC)c45)ncc23)C1` [Example 177, (S)-1-(7-(8-Ethyl-7-fluoro-3-hydroxynaphthalen-1-yl)-8-fluoro-2-(((2R,7aS)-2-fluorotetrahydro-1H-pyrrolizin-7a(5H)-yl)methoxy)pyrido[4,3-d]pyrimidin-4-yl)-3-(methyl-d3)piperidin-3-ol]: the IC50 is 109 nM. On the same count and under the same terms, with `CCc1c(F)ccc2cc(O)cc(-c3ncc4c(N5CCC[C@@](C)(O)C5)nc(OC[C@@]56CCCN5C[C@H](F)C6)nc4c3F)c12` [Example 38, (R)-1-(7-(8-ethyl-7-fluoro-3-hydroxynaphthalen-1-yl)-8-fluoro-2-(((2R,7aS)-2-fluorotetrahydro-1H-pyrrolizin-7a(5H)-yl)methoxy)pyrido[4,3-d]pyrimidin-4-yl)-3-methyl-piperidin-3-ol] the figure was 5 nM; with `CCc1c(F)ccc2cc(O)cc(-c3ncc4c(N5CCC[C@@](C)(O)C5)nc(OC[C@]56CCCN5C[C@@H](F)C6)nc4c3F)c12` [Example 178, (R)-1-(7-(8-Ethyl-7-fluoro-3-hydroxynaphthalen-1-yl)-8-fluoro-2-(((2S,7aR)-2-fluorotetrahydro-1H-pyrrolizin-7a(5H)-yl)methoxy)pyrido[4,3-d]pyrimidin-4-yl)-3-methylpiperidin-3-ol bis(2,2,2-trifluoroacetate)], 8 nM.

Staying with this test, now noted: read-out: 2 h p-ERK (AsPC-1 cells), IC50; AsPC-1 cells, 2 h compound treatment.
For the molecule `CCc1c(F)ccc2cc(O)cc(-c3ncc4c(N5CCCC(O)(CF)C5)nc(OC[C@@]56CCCN5C[C@H](F)C6)nc4c3F)c12` (single isomer, unassigned) [Example 172], the IC50 worked out at 86 nM.

One may read the IC50 as the concentration that inhibits the measured activity by half.
